Source: US11913952B2, “Methods for detecting peptide/MHC/TCR binding” (Prognosys Biosciences, Inc., priority 2013, dated 2024)
Read-outs that look alike come from different tables or passages of the source.

How the values were obtained:
[1] = target: HLA-DRB1*01:01 (Homo sapiens, UniProt P01903+P01911, A100R/D57E/F55L/F60I/F76Y/I96L/L162R/M171V/P40L/Q125E/R42F/V115G/Y59C); experiment: Peptide-MHC binding assay: conjugate incubated with recombinant MHC, captured with anti-HLA-DR antibody (L243) beads, qPCR
[2] = test system: HLA-DR3; details: cited from earlier work; for known binding of peptide to HLA-DR3: Sidney et al., 2002
[3] = target: T1, HLA-DR1 (Homo sapiens, UniProt P01903+P01911, A100R/D57E/F55L/F60I/F76Y/I96L/L162R/M171V/P40L/Q125E/R42F/V115G/Y59C); details: cited from earlier work; for known binding of peptide to HLA-DR1: Sidney et al., 2002
[4] = test system: HLA-DR3
[5] = target: T1, HLA-DR1; assay type: binding; set-up: biotin (biotinylated)
[6] = test system: DR1
[7] = target: HLA-DR2 (Homo sapiens, UniProt P01903+P01911); details: cited from earlier work

| Substance | enrichment in the DR1 condition compared to beads only [1] | known binding of peptide to HLA-DR3 [2] | known binding of peptide to HLA-DR1 [3] | known affinity of peptide for the HLA-DR1 molecule [3] | known binding of peptide to HLA-DRB1*01:01 [3] | binding of peptide-cDNA conjugate to MHC molecule [4] | affinity of peptide for purified DR2 [7] | further results |
| --- | --- | --- | --- | --- | --- | --- | --- | --- |
| YPKYVKQNTLKLAT | ~1000 fold | without cross-binding | bind | high | bind | not to the other HLA-DR family member | – | enrichment of conjugate binding to DR1 over beads [1]: ~100 fold; binding of peptide-cDNA conjugate to MHC molecule [5]: bound to the expected MHC molecule; profile of binding to HLA-DR1 [5]: high |
| YKTIAFDEEARR | no such enrichment | bind | without cross-binding | – | not bind | bound to the expected MHC molecule | – | enrichment of signal in the DR1 condition compared to beads only [6]: ~1000 fold; known binding of peptide to HLA-DRB1*03:01 [2]: bind; binding of peptide-cDNA conjugate to MHC molecule ([5]; biotinylated HLA-DR1, overnight incubation, gel electrophoresis and qPCR readouts): not to the other HLA-DR family member |
| MBP(148-162): peptide of human myelin basic protein, residues 148-162 (YLATASTMDHARHGF; UniProt P02686 148-162, looked up, fragment) | – | – | – | – | – | – | lower but significant | – |
| MBP(85-99): peptide of human myelin basic protein, residues 85-99 (PGSRPHLIRLFSRDA; UniProt P02686 85-99, looked up, fragment) | – | – | – | – | – | – | high affinity | – |
| YPKAVKQNTLKLAT [YP (Y4A)] | – | – | – | low | – | – | – | profile of binding to HLA-DR1 ([5]; conjugates incubated and detected as a mixture (3-plex), qPCR): low; profile of binding to HLA-DR1 ([5]; conjugates present individually (1-plex), qPCR): low |
